Reference: the supplement of paper PMC12463676, “Small-molecule dissolution of stress granules by redox modulation benefits ALS models” (Nature Chemical Biology, 2025)

Assays:
lipoamide = compound: NC(=O)CCCCC1CCSS1 [lipoamide]; experiment: thermal stability z-score vs DMSO; higher = more thermally stabilized by treatment; conditions: HeLa, lipoamide concentration 100 µM
Procedure: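 Cellular thermal proteome profiling in HeLa cells. Cells were treated with 100 µM lipoamide for 1 h, with or without 1 mM arsenate for a further 1 h, then heated to ten temperatures (37-66.3 °C), and soluble protein was quantified by TMT mass spectrometry relative to 0.1% DMSO controls. The thermal stability score (sum of log2 fold changes minus the abundance score) was transformed to a z-score; mean of n = 3 experiments.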

potassium arsenate = compound: O=[As]([O-])(O)O.[K+] [potassium arsenate]; experiment: as above; conditions: HeLa; arsenate concentration 1 mM
Procedure: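 Cellular thermal proteome profiling in HeLa cells treated with 1 mM arsenate for 1 h (DMSO pretreatment), heated to ten temperatures (37-66.3 °C). Soluble protein was quantified by TMT mass spectrometry relative to DMSO controls; the thermal stability score was transformed to a z-score; mean of n = 3 experiments.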

[1] = arsenate co-treatment: 1 mM arsenate 1 h
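Also: each temperature applied for 3 min, abundance score taken as mean log2 fold change at the two lowest temperatures, z-score obtained by mean subtraction and division by SD.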

Chain of UniProt Q9Y2A7 (Q9Y2A7 whole entry): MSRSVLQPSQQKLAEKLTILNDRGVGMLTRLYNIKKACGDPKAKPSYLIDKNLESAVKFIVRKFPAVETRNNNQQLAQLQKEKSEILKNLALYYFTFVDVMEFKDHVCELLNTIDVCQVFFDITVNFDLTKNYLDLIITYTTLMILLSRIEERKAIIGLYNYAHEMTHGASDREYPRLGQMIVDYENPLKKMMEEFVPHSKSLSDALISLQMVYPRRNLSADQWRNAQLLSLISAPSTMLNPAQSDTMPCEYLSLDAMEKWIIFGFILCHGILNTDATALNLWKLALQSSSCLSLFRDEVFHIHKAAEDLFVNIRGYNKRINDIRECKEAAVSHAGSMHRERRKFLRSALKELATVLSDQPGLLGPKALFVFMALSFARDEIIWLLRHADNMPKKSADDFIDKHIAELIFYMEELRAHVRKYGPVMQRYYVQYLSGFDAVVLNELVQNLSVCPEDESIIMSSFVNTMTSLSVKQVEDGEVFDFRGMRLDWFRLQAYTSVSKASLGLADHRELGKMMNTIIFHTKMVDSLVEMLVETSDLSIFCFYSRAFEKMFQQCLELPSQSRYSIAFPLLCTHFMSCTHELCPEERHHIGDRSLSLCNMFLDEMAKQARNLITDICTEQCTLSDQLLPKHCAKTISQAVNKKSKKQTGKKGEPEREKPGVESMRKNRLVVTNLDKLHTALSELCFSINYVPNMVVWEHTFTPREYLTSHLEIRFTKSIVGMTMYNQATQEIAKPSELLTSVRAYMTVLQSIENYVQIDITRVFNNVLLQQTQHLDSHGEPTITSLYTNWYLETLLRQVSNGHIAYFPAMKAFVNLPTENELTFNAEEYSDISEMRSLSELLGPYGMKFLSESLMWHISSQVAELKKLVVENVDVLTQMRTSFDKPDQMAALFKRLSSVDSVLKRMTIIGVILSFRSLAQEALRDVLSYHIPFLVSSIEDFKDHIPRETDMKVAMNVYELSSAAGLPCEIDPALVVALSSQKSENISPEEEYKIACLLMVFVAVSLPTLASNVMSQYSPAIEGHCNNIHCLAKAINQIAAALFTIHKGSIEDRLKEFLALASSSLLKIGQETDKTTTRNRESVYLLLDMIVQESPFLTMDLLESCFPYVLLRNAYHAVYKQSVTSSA
Chain of UniProt Q09161 (Q09161 whole entry): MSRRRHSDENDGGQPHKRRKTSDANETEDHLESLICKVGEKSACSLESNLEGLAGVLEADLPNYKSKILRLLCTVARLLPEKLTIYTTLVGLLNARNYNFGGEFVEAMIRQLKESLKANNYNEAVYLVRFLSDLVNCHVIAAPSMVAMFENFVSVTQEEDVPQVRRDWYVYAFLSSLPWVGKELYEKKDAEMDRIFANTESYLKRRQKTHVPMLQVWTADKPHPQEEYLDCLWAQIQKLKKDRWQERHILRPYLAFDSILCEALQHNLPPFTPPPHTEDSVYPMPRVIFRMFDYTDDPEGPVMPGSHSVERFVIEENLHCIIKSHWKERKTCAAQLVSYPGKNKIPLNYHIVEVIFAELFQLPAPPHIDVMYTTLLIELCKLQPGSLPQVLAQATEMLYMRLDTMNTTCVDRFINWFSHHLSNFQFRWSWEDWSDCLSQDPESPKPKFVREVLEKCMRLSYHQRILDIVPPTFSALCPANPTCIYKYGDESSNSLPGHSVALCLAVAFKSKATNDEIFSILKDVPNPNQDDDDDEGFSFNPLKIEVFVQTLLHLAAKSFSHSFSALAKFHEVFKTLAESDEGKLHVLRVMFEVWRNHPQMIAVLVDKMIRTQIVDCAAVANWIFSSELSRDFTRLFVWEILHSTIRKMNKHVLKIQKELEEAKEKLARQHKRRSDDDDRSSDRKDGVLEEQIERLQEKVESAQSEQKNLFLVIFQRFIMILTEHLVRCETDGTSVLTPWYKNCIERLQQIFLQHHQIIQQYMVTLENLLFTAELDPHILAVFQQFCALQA
Chain of UniProt P56556 (P56556 whole entry): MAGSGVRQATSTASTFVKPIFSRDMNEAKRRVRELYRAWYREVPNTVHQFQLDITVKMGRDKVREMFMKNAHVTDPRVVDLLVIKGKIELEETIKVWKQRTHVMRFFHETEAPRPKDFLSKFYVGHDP
Chain of UniProt O14777 (O14777 whole entry): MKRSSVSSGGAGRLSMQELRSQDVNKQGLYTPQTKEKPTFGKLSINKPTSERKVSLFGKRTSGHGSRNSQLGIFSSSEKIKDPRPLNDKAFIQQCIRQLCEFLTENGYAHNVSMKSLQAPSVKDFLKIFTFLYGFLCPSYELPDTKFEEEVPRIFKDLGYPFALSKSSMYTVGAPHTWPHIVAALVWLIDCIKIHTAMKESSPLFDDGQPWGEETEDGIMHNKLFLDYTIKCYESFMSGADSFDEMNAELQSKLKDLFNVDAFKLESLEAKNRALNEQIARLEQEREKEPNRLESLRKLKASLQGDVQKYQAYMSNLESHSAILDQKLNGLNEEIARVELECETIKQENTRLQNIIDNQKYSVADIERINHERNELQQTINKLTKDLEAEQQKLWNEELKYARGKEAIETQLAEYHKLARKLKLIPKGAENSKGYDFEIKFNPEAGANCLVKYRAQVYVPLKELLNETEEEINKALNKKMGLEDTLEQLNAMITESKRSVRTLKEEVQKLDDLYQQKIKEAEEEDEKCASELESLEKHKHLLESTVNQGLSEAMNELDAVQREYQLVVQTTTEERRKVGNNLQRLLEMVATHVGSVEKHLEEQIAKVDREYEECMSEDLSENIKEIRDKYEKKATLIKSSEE
Chain of UniProt Q8NI08 (Q8NI08 whole entry): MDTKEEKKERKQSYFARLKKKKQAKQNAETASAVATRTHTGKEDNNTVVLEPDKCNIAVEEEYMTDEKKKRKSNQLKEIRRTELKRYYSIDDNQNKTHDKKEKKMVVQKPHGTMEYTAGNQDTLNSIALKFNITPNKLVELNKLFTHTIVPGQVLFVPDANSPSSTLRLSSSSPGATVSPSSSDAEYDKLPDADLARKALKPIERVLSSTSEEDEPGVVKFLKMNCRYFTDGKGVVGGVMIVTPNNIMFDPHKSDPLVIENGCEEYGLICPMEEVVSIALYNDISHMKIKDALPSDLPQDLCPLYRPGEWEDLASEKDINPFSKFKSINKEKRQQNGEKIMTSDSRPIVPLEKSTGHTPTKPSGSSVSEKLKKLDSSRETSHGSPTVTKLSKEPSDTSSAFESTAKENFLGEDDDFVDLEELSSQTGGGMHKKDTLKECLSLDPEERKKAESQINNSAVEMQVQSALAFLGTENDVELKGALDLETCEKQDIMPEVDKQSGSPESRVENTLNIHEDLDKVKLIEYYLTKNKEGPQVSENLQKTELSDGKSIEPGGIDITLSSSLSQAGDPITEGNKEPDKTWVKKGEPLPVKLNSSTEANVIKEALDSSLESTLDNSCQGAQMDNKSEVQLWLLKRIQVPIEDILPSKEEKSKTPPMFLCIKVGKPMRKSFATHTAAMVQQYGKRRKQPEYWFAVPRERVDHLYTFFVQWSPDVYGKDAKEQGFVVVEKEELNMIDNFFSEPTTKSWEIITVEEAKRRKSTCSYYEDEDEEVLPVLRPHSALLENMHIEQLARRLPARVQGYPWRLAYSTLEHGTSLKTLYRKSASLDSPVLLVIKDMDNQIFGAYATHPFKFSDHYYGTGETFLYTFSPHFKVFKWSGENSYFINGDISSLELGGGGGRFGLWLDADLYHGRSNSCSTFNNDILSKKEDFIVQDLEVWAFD
Chain of UniProt Q9BTX1 (Q9BTX1 whole entry): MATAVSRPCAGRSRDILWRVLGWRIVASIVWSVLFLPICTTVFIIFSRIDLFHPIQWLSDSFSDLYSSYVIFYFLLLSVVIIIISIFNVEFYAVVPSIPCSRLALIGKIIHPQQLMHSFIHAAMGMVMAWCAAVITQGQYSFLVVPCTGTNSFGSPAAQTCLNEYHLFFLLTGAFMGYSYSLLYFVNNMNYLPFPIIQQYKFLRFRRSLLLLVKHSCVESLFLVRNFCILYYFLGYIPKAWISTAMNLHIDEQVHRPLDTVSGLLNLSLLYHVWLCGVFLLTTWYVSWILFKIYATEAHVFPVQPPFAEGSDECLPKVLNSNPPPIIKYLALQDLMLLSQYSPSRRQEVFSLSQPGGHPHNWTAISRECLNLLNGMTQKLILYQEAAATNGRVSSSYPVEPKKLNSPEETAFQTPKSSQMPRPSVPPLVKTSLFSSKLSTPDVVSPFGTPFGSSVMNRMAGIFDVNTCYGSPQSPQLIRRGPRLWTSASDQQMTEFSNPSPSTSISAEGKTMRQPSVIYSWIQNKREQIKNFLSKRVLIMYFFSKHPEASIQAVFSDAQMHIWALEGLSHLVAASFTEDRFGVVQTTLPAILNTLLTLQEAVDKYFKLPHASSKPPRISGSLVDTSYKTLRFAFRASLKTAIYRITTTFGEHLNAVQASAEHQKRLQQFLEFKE
Chain of UniProt Q92542 (Q92542 whole entry): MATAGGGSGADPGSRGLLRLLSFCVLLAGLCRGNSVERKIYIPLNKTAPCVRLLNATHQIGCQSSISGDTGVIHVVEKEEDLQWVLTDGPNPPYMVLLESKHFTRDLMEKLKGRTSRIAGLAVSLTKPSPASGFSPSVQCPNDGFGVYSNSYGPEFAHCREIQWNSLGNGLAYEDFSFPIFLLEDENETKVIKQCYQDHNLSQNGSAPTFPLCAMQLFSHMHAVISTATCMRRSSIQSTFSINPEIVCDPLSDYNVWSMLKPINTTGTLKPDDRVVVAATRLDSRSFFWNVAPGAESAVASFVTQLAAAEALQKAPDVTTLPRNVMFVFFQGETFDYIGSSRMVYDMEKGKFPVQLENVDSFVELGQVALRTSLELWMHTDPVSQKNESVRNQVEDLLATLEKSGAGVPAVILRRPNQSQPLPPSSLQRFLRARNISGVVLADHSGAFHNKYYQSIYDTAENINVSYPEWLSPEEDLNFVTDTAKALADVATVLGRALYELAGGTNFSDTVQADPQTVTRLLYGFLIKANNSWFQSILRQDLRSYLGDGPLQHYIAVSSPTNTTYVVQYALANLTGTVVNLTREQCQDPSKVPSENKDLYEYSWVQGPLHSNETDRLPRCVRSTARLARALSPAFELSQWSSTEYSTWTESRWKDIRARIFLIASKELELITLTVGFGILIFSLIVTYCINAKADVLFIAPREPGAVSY

NAXD (UniProt Q8IW45) was tested, and the thermal stability z-score (lipoamide; [1]) was -0.31, the thermal stability z-score (lipoamide; arsenate co-treatment: none) was 0.472 and the thermal stability z-score (potassium arsenate) was 0.0249.

NAXE (UniProt Q8NCW5) gave a thermal stability z-score (lipoamide; [1]) of 0.137, a thermal stability z-score (lipoamide; arsenate co-treatment: none) of 0.266 and a thermal stability z-score (potassium arsenate) of -0.422.

In the case of NBAS (UniProt A2RRP1), the thermal stability z-score (lipoamide; [1]) is reported as 0.00568, the thermal stability z-score (lipoamide; arsenate co-treatment: none) is reported as 0.0731 and the thermal stability z-score (potassium arsenate) is reported as -0.0529.

NBEAL1 (UniProt Q6ZS30) gave a thermal stability z-score (lipoamide; [1]) of 0.108, a thermal stability z-score (lipoamide; arsenate co-treatment: none) of -0.0292 and a thermal stability z-score (potassium arsenate) of -0.119.

With NBEAL2 (UniProt Q6ZNJ1) the thermal stability z-score (lipoamide; [1]) was -0.0914, the thermal stability z-score (lipoamide; arsenate co-treatment: none) was 0.0428 and the thermal stability z-score (potassium arsenate) was 0.0522.

In the case of NBN (UniProt O60934), the thermal stability z-score (lipoamide; [1]) is reported as 0.219, the thermal stability z-score (lipoamide; arsenate co-treatment: none) is reported as 0.275 and the thermal stability z-score (potassium arsenate) is reported as -0.469.

NCAPD2 (UniProt Q15021) gave a thermal stability z-score (lipoamide; [1]) of -0.565, a thermal stability z-score (lipoamide; arsenate co-treatment: none) of -0.251 and a thermal stability z-score (potassium arsenate) of 0.369.

For NCAPD3 (UniProt P42695), the thermal stability z-score (lipoamide; [1]) was 0.394, the thermal stability z-score (lipoamide; arsenate co-treatment: none) was 0.105 and the thermal stability z-score (potassium arsenate) was 0.161.

In the case of NCAPG2 (UniProt Q86XI2), the thermal stability z-score (lipoamide; [1]) is reported as -0.00836, the thermal stability z-score (lipoamide; arsenate co-treatment: none) is reported as -0.0717 and the thermal stability z-score (potassium arsenate) is reported as -0.267.

For NCAPG (UniProt Q9BPX3), the thermal stability z-score (lipoamide; [1]) was -0.382, the thermal stability z-score (lipoamide; arsenate co-treatment: none) was 0.295 and the thermal stability z-score (potassium arsenate) was 0.883.

Work on NCAPH2 (UniProt Q6IBW4) yielded a thermal stability z-score (lipoamide; [1]) of -0.0183, a thermal stability z-score (lipoamide; arsenate co-treatment: none) of 0.00929 and a thermal stability z-score (potassium arsenate) of -0.299.

In the case of NCAPH (UniProt Q15003), the thermal stability z-score (lipoamide; [1]) is reported as -1.04, the thermal stability z-score (lipoamide; arsenate co-treatment: none) is reported as -0.316 and the thermal stability z-score (potassium arsenate) is reported as 0.387.

NCBP1 (UniProt Q09161) showed a thermal stability z-score (lipoamide; [1]) of 0.353, a thermal stability z-score (lipoamide; arsenate co-treatment: none) of 0.393 and a thermal stability z-score (potassium arsenate) of -0.0646.

In the case of NCBP2 (UniProt P52298), the thermal stability z-score (lipoamide; [1]) is reported as 0.782, the thermal stability z-score (lipoamide; arsenate co-treatment: none) is reported as 0.577 and the thermal stability z-score (potassium arsenate) is reported as -0.0118.

Target NCDN (UniProt Q9UBB6) has a thermal stability z-score (lipoamide; [1]) of 0.164, a thermal stability z-score (lipoamide; arsenate co-treatment: none) of -0.266 and a thermal stability z-score (potassium arsenate) of 0.288.

Target NCEH1 (UniProt Q6PIU2) has a thermal stability z-score (lipoamide; [1]) of -0.5, a thermal stability z-score (lipoamide; arsenate co-treatment: none) of -0.83 and a thermal stability z-score (potassium arsenate) of -0.34.

In the case of NCK1 (UniProt P16333), the thermal stability z-score (lipoamide; [1]) is reported as -0.705, the thermal stability z-score (lipoamide; arsenate co-treatment: none) is reported as -0.905 and the thermal stability z-score (potassium arsenate) is reported as -0.0139.

Target NCKAP1 (UniProt Q9Y2A7) has a thermal stability z-score (lipoamide; [1]) of 0.0716, a thermal stability z-score (lipoamide; arsenate co-treatment: none) of 0.602 and a thermal stability z-score (potassium arsenate) of -0.938.

In the case of NCKAP5L (UniProt Q9HCH0), the thermal stability z-score (lipoamide; [1]) is reported as -0.000592, the thermal stability z-score (lipoamide; arsenate co-treatment: none) is reported as 0.244 and the thermal stability z-score (potassium arsenate) is reported as 0.264.

For NCKIPSD (UniProt Q9NZQ3), the thermal stability z-score (lipoamide; [1]) was 0.127, the thermal stability z-score (lipoamide; arsenate co-treatment: none) was 0.0916 and the thermal stability z-score (potassium arsenate) was 0.255.

NCL (UniProt P19338) showed a thermal stability z-score (lipoamide; [1]) of 0.724, a thermal stability z-score (lipoamide; arsenate co-treatment: none) of 0.77 and a thermal stability z-score (potassium arsenate) of -0.611.

NCLN (UniProt Q969V3) was tested, and the thermal stability z-score (lipoamide; [1]) was -3.4, the thermal stability z-score (lipoamide; arsenate co-treatment: none) was -2.85 and the thermal stability z-score (potassium arsenate) was 0.537.

Target NCOA2 (UniProt Q15596) has a thermal stability z-score (lipoamide; [1]) of -0.239, a thermal stability z-score (lipoamide; arsenate co-treatment: none) of -0.0592 and a thermal stability z-score (potassium arsenate) of -0.284.

In the case of NCOA3 (UniProt Q9Y6Q9), the thermal stability z-score (lipoamide; [1]) is reported as -0.0145, the thermal stability z-score (lipoamide; arsenate co-treatment: none) is reported as 0.0505 and the thermal stability z-score (potassium arsenate) is reported as -0.26.

In the case of NCOA4 (UniProt Q13772), the thermal stability z-score (lipoamide; [1]) is reported as -0.252, the thermal stability z-score (lipoamide; arsenate co-treatment: none) is reported as 0.00243 and the thermal stability z-score (potassium arsenate) is reported as -0.116.

In the case of NCOA5 (UniProt Q9HCD5), the thermal stability z-score (lipoamide; [1]) is reported as 1.91, the thermal stability z-score (lipoamide; arsenate co-treatment: none) is reported as 0.857 and the thermal stability z-score (potassium arsenate) is reported as 1.05.

For NCOA7 (UniProt Q8NI08), the thermal stability z-score (lipoamide; [1]) was -0.676, the thermal stability z-score (lipoamide; arsenate co-treatment: none) was -0.721 and the thermal stability z-score (potassium arsenate) was 0.0655.

NCOR1 (UniProt O75376) showed a thermal stability z-score (lipoamide; [1]) of -0.0471, a thermal stability z-score (lipoamide; arsenate co-treatment: none) of -0.0243 and a thermal stability z-score (potassium arsenate) of -0.0899.

NCOR2 (UniProt Q9Y618) was tested, and the thermal stability z-score (lipoamide; [1]) was 0.182, the thermal stability z-score (lipoamide; arsenate co-treatment: none) was 0.227 and the thermal stability z-score (potassium arsenate) was 0.138.

NCS1 (UniProt P62166) gave a thermal stability z-score (lipoamide; [1]) of -0.202, a thermal stability z-score (lipoamide; arsenate co-treatment: none) of -0.195 and a thermal stability z-score (potassium arsenate) of -0.124.

Target NCSTN (UniProt Q92542) has a thermal stability z-score (lipoamide; [1]) of -0.537, a thermal stability z-score (lipoamide; arsenate co-treatment: none) of -0.624 and a thermal stability z-score (potassium arsenate) of -0.207.

Work on NDC1 (UniProt Q9BTX1) yielded a thermal stability z-score (lipoamide; [1]) of 0.0748, a thermal stability z-score (lipoamide; arsenate co-treatment: none) of 0.0634 and a thermal stability z-score (potassium arsenate) of 0.177.

Target NDC80 (UniProt O14777) has a thermal stability z-score (lipoamide; [1]) of -0.361, a thermal stability z-score (lipoamide; arsenate co-treatment: none) of 0.254 and a thermal stability z-score (potassium arsenate) of 1.71.

With NDE1 (UniProt Q9NXR1) the thermal stability z-score (lipoamide; [1]) was 0.584, the thermal stability z-score (lipoamide; arsenate co-treatment: none) was 0.266 and the thermal stability z-score (potassium arsenate) was 0.0354.

NDFIP1 (UniProt Q9BT67) showed a thermal stability z-score (lipoamide; [1]) of 1.07, a thermal stability z-score (lipoamide; arsenate co-treatment: none) of 0.0758 and a thermal stability z-score (potassium arsenate) of 1.41.

With NDOR1 (UniProt Q9UHB4) the thermal stability z-score (lipoamide; [1]) was 0.000709, the thermal stability z-score (lipoamide; arsenate co-treatment: none) was 0.487 and the thermal stability z-score (potassium arsenate) was 1.08.

Target NDRG1 (UniProt Q92597) has a thermal stability z-score (lipoamide; [1]) of -0.311, a thermal stability z-score (lipoamide; arsenate co-treatment: none) of -0.62 and a thermal stability z-score (potassium arsenate) of -1.31.

With NDRG3 (UniProt Q9UGV2) the thermal stability z-score (lipoamide; [1]) was -0.101, the thermal stability z-score (lipoamide; arsenate co-treatment: none) was -0.269 and the thermal stability z-score (potassium arsenate) was -1.65.

For NDUFA2 (UniProt O43678), the thermal stability z-score (lipoamide; [1]) was -0.29, the thermal stability z-score (lipoamide; arsenate co-treatment: none) was -0.00199 and the thermal stability z-score (potassium arsenate) was 0.396.

NDUFA4 (UniProt O00483) showed a thermal stability z-score (lipoamide; [1]) of 0.551, a thermal stability z-score (lipoamide; arsenate co-treatment: none) of 0.887 and a thermal stability z-score (potassium arsenate) of 0.532.

With NDUFA5 (UniProt Q16718) the thermal stability z-score (lipoamide; [1]) was -0.0074, the thermal stability z-score (lipoamide; arsenate co-treatment: none) was -0.146 and the thermal stability z-score (potassium arsenate) was 0.101.

NDUFA6 (UniProt P56556) showed a thermal stability z-score (lipoamide; [1]) of -0.164, a thermal stability z-score (lipoamide; arsenate co-treatment: none) of -0.00891 and a thermal stability z-score (potassium arsenate) of 0.505.

With NDUFA7 (UniProt O95182) the thermal stability z-score (lipoamide; [1]) was 0.276, the thermal stability z-score (lipoamide; arsenate co-treatment: none) was 0.141 and the thermal stability z-score (potassium arsenate) was 0.128.

With NDUFA8 (UniProt P51970) the thermal stability z-score (lipoamide; [1]) was -0.418, the thermal stability z-score (lipoamide; arsenate co-treatment: none) was -0.772 and the thermal stability z-score (potassium arsenate) was 0.0194.

Work on NDUFA9 (UniProt Q16795) yielded a thermal stability z-score (lipoamide; [1]) of 0.188, a thermal stability z-score (lipoamide; arsenate co-treatment: none) of 0.112 and a thermal stability z-score (potassium arsenate) of 0.475.

For NDUFA10 (UniProt O95299), the thermal stability z-score (lipoamide; [1]) was -0.327, the thermal stability z-score (lipoamide; arsenate co-treatment: none) was -0.199 and the thermal stability z-score (potassium arsenate) was -0.167.

NDUFA11 (UniProt Q86Y39) gave a thermal stability z-score (lipoamide; [1]) of 0.521, a thermal stability z-score (lipoamide; arsenate co-treatment: none) of -0.0102 and a thermal stability z-score (potassium arsenate) of 0.571.

NDUFA12 (UniProt Q9UI09) gave a thermal stability z-score (lipoamide; [1]) of -0.0618, a thermal stability z-score (lipoamide; arsenate co-treatment: none) of 0.06 and a thermal stability z-score (potassium arsenate) of 0.611.

NDUFAB1 (UniProt O14561) was tested, and the thermal stability z-score (lipoamide; [1]) was 1.77, the thermal stability z-score (lipoamide; arsenate co-treatment: none) was -0.297 and the thermal stability z-score (potassium arsenate) was 0.86.

With NDUFAF1 (UniProt Q9Y375) the thermal stability z-score (lipoamide; [1]) was -0.593, the thermal stability z-score (lipoamide; arsenate co-treatment: none) was -0.335 and the thermal stability z-score (potassium arsenate) was -0.0374.

NDUFAF2 (UniProt Q8N183) gave a thermal stability z-score (lipoamide; [1]) of 0.429, a thermal stability z-score (lipoamide; arsenate co-treatment: none) of 0.317 and a thermal stability z-score (potassium arsenate) of 0.094.

Work on NDUFAF3 (UniProt Q9BU61) yielded a thermal stability z-score (lipoamide; [1]) of -0.122, a thermal stability z-score (lipoamide; arsenate co-treatment: none) of -0.105 and a thermal stability z-score (potassium arsenate) of -0.147.

With NDUFAF4 (UniProt Q9P032) the thermal stability z-score (lipoamide; [1]) was -0.153, the thermal stability z-score (lipoamide; arsenate co-treatment: none) was 0.199 and the thermal stability z-score (potassium arsenate) was 0.182.

Work on NDUFAF5 (UniProt Q5TEU4) yielded a thermal stability z-score (lipoamide; [1]) of -0.066, a thermal stability z-score (lipoamide; arsenate co-treatment: none) of -0.112 and a thermal stability z-score (potassium arsenate) of 0.155.

NDUFAF6 (UniProt Q330K2) was tested, and the thermal stability z-score (lipoamide; [1]) was 0.234, the thermal stability z-score (lipoamide; arsenate co-treatment: none) was 0.0618 and the thermal stability z-score (potassium arsenate) was 0.0349.
